Source: publication PMC7377239, “Cardiovascular Effects of Polychlorinated Biphenyls and Their Major Metabolites” (Environmental Health Perspectives, 2020)
Like-named read-outs stand apart in the source and are kept apart here.

What was measured:
[1] = tested on: HUVECs; assay: High-content imaging cytotoxicity in HUVECs, 24 h; assay type: cell-based, human; settings: Homo sapiens, HUVEC, 24 h, HUVECs; for viability at 0.01 µM / activity at 0.01 µM / viability at 0.1 µM / activity at 0.1 µM / viability at 1 µM / activity at 1 µM / viability at 10 µM / activity at 10 µM / viability at 100 µM / activity at 100 µM: 0.00 µM = 100.00; for viability at 0.1 µM / activity at 0.1 µM: 0.10 µM; for minimal effective concentration: top concentration 100.00 µM
Method in brief: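 Point-of-departure values derive from four-parameter logistic fits of vehicle-normalized imaging phenotypes (Hoechst 33342, MitoTracker Orange, calcein AM). The fits follow 24 h exposure of HUVEC monolayers at 37°C and 5% CO2, with a top tested concentration of 100μM.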

[2] = tested on: iCell cardiomyocytes (human iPSC-derived cardiomyocytes); assay: High-content imaging of cytotoxicity and mitochondrial integrity in iPSC-CMs; assay type: cell-based; settings: Homo sapiens; for viability at 0.01 µM / activity at 0.01 µM / viability at 0.1 µM / activity at 0.1 µM / viability at 1 µM / activity at 1 µM / viability at 10 µM / activity at 10 µM / viability at 100 µM / activity at 100 µM: Cardiomyocyte, 0.00 µM = 100.00; for viability at 0.1 µM / activity at 0.1 µM: 0.10 µM; for minimal effective concentration: iPSC-CM
Method in brief: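 Readouts from high-content images were normalized to vehicle controls containing 0.5% vol/vol DMSO. They were fit to a four-parameter logistic model in R. Points of departure were set using a cutoff of one standard deviation across vehicle control means. Where no concentration–response was seen, the top tested concentration of 100μM was assigned as the no observable adverse effect level.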

[3] = 24 hr, read-out: huvec.cyto.24hr
[4] = 24 hr, read-out: huvec.mito.24hr
[5] = 24 hr, read-out: huvec.mitoint.24hr
[6] = 24 hr, read-out: huvec.nma.24hr
[7] = 24 hrs, read-out: huvec.tc.24hrs

## COc1ccc(-c2cccc(Cl)c2)cc1Cl [4-OMe PCB11]
[1]; [3]
  viability at 0.01 µM: 96.4%
  viability at 0.1 µM: 98.3%
  viability at 1 µM: 101%
  viability at 10 µM: 89.7%
  viability at 100 µM: 56.3%
[1]; [4]
  activity at 0.01 µM: 94.6%
  activity at 0.1 µM: 98.5%
  activity at 1 µM: 100%
  activity at 10 µM: 86.4%
  activity at 100 µM: 44%
[1]; [5]
  activity at 0.01 µM: 95.4%
  activity at 0.1 µM: 106%
  activity at 1 µM: 103%
  activity at 10 µM: 95.6%
  activity at 100 µM: 65.8%
[1]; [6]
  activity at 0.01 µM: 96.3%
  activity at 0.1 µM: 101%
  activity at 1 µM: 100%
  activity at 10 µM: 92.7%
  activity at 100 µM: 73.1%
[1]; 24 hr, read-out: huvec.cyto.24hr POD
  minimal effective concentration: 7.59 µM
[1]; 24 hr, read-out: huvec.mito.24hr POD
  minimal effective concentration: 6.19 µM
[1]; 24 hr, read-out: huvec.mitoint.24hr POD
  minimal effective concentration: 16 µM
[1]; 24 hr, read-out: huvec.nma.24hr POD
  minimal effective concentration: 6.39 µM
[1]; [7]
  viability at 0.01 µM: 96.4%
  viability at 0.1 µM: 98.4%
  viability at 1 µM: 101%
  viability at 10 µM: 89.7%
  viability at 100 µM: 56.4%
[1]; 24 hrs, read-out: huvec.tc.24hrs POD
  minimal effective concentration: 7.59 µM
[2]; 1.5 h, read-out: cm.cam.90min
  viability at 0.01 µM: 89.1%
  viability at 0.1 µM: 101%
  viability at 1 µM: 96.5%
  viability at 10 µM: 99.9%
  viability at 100 µM: 3.43%
[2]; 1.5 h, read-out: cm.mii.90min
  activity at 0.01 µM: 112%
  activity at 0.1 µM: 93.8%
  activity at 1 µM: 94.7%
  activity at 10 µM: 109%
  activity at 100 µM: 74.3%
[2]; 1.5 h, read-out: cm.mito.90min
  activity at 0.01 µM: 87.5%
  activity at 0.1 µM: 101%
  activity at 1 µM: 96.6%
  activity at 10 µM: 100%
  activity at 100 µM: 2.03%
[2]; 1.5 h, read-out: cm.tc.90min
  viability at 0.01 µM: 89.6%
  viability at 0.1 µM: 101%
  viability at 1 µM: 96.7%
  viability at 10 µM: 100%
  viability at 100 µM: 3.76%
[2]; 24 h, read-out: cm.cam.24hrs
  viability at 0.01 µM: 95.2%
  viability at 0.1 µM: 102%
  viability at 1 µM: 95.3%
  viability at 10 µM: 102%
  viability at 100 µM: 2.29%
[2]; 24 h, read-out: cm.mii.24hrs
  activity at 0.01 µM: 95.8%
  activity at 0.1 µM: 88.6%
  activity at 1 µM: 107%
  activity at 10 µM: 85.8%
  activity at 100 µM: 34.1%
[2]; 24 h, read-out: cm.mito.24hrs
  activity at 0.01 µM: 97.8%
  activity at 0.1 µM: 104%
  activity at 1 µM: 93.6%
  activity at 10 µM: 103%
  activity at 100 µM: 0.46%
[2]; 24 h, read-out: cm.tc.24hrs
  viability at 0.01 µM: 97.4%
  viability at 0.1 µM: 103%
  viability at 1 µM: 95.6%
  viability at 10 µM: 103%
  viability at 100 µM: 2.4%
[2]; 1.5 h, read-out: cm.cam.90min POD
  minimal effective concentration: 33.8 µM
[2]; 1.5 h, read-out: cm.mii.90min POD
  minimal effective concentration: 62.2 µM
[2]; 1.5 h, read-out: cm.mito.90min POD
  minimal effective concentration: 29.1 µM
[2]; 1.5 h, read-out: cm.tc.90min POD
  minimal effective concentration: 28.6 µM
[2]; 24 h, read-out: cm.cam.24hrs POD
  minimal effective concentration: 37.2 µM
[2]; 24 h, read-out: cm.mii.24hrs POD
  minimal effective concentration: 10.8 µM
[2]; 24 h, read-out: cm.mito.24hrs POD
  minimal effective concentration: 31.1 µM
[2]; 24 h, read-out: cm.tc.24hrs POD
  minimal effective concentration: 33.4 µM
